pIC50: −log10 of the molar value.
How the values were obtained:
CCRF-CEM = test: Cytotoxicity against human CEM cells; assay type: functional, cell-based
L1210 = test: Cytotoxicity against mouse L1210 cells; assay type: functional, cell-based
[1] = target: T1, Glycylpeptide N-tetradecanoyltransferase 1 (Homo sapiens, UniProt P30419); test: Inhibition of human NMT expressed in Escherichia coli DH5alpha cells
T1 sequence (P30419 whole entry): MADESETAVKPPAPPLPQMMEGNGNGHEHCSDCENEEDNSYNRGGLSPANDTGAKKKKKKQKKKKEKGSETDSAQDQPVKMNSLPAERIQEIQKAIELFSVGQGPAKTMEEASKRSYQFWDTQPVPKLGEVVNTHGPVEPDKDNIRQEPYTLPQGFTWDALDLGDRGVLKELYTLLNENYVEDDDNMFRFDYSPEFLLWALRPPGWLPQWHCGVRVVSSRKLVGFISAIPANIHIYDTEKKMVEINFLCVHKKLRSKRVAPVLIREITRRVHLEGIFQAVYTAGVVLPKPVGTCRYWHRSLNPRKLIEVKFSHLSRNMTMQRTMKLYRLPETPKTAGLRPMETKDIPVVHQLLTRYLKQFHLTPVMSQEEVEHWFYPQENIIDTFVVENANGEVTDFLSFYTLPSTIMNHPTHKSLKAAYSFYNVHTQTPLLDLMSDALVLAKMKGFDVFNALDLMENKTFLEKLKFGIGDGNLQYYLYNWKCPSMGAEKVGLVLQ

[2] = Cytotoxicity against human Molt4/C8 cells; assay type: functional, cell-based; conditions: MOLT-4
Mus musculus [3] = test: Toxicity in mouse assessed as mortality at 30 to 300 mg/kg, ip after 0.5 to 4 hrs; assay type: organism-based; parameters: dose 30-300 mg/kg, route intraperitoneal; conditions: in vivo
Mus musculus [4] = test: Toxicity in mouse assessed as mortality at 100 mg/kg, ip after 4 hrs; assay type: organism-based; parameters: dose 100 mg/kg, route intraperitoneal; conditions: in vivo
Mus musculus [5] = test: Toxicity in mouse assessed as mortality at 300 mg/kg, ip after 4 hrs; assay type: organism-based; parameters: dose 300 mg/kg, route intraperitoneal; conditions: in vivo
Mus musculus [6] = test: Toxicity in mouse assessed as mortality at 30 mg/kg, ip after 4 hrs; assay type: organism-based; parameters: dose 30 mg/kg, route intraperitoneal; conditions: in vivo

| Structure (SMILES) | pIC50 (CCRF-CEM) | pIC50 (L1210) | pIC50 [1] | pIC50 [2] | Activity (Mus musculus [3]) | Activity (Mus musculus [4]) | Activity (Mus musculus [5]) | Activity (Mus musculus [6]) |
| --- | --- | --- | --- | --- | --- | --- | --- | --- |
| COC(=O)/C=C\C(=O)Nc1ccc(C)cc1 | 4.44 | 4.33 | < 2.00 | 4.43 |  |  |  |  |
| COC(=O)/C=C\C(=O)Nc1ccc(C)c(C)c1 | 3.64 | 3.69 |  | 3.73 |  |  |  |  |
| O=C(O)/C=C/C(=O)Nc1ccc(Cl)c(Cl)c1 | 3.68 | 3.50 |  | 3.67 | Non-toxic |  |  |  |
| O=C1C=C/C(=N\c2ccc(Cl)cc2)O1 | 3.74 | 4.23 |  | 4.52 |  |  |  |  |
| COC(=O)CCC(=O)Nc1ccccc1 | < 3.30 | < 3.30 |  | < 3.30 |  |  |  |  |
| O=C1CCC(=O)N1c1ccc([N+](=O)[O-])cc1 | 3.69 | 4.39 |  | 3.68 |  | Toxic | Toxic |  |
| COC(=O)/C=C\C(=O)Nc1ccccc1 | < 3.30 | < 3.30 |  | < 3.30 |  |  |  |  |
| COC(=O)/C=C\C(=O)Nc1ccc(Cl)c(Cl)c1 | 4.26 | 4.41 |  | 4.39 |  |  | Toxic |  |
| O=C1CCC(=O)N1c1ccc(Cl)cc1 | 3.64 | 3.71 |  | 3.66 |  | Toxic | Toxic |  |
| Cc1ccc(N2C(=O)CCC2=O)cc1 | 4.38 | 5.11 |  | 4.37 |  | Toxic | Toxic |  |
| COc1ccc(N2C(=O)CCC2=O)cc1 | 3.53 | 3.65 |  | 3.55 |  | Toxic | Toxic |  |
| CC(=O)c1ccc(N2C(=O)CCC2=O)cc1 | 3.67 | 4.51 |  | 4.03 |  | Toxic | Toxic |  |
| O=C1C=C/C(=N\c2ccccc2)O1 | < 3.30 | < 3.30 |  | < 3.30 |  |  |  |  |
| O=C1C=C/C(=N\c2ccc(Cl)c(Cl)c2)O1 | 4.27 | 4.33 |  | 4.24 |  |  | Toxic |  |
| Cc1ccc(/N=C2\C=CC(=O)O2)cc1 | 3.45 | 3.57 |  | 3.52 |  |  |  |  |
| Cc1ccc(/N=C2\C=CC(=O)O2)cc1C | 3.71 | 4.16 |  | 3.79 |  |  |  |  |
| COc1ccc(/N=C2\C=CC(=O)O2)cc1 | < 3.30 | < 3.30 |  | < 3.30 |  |  |  |  |
| O=C1C=C/C(=N\c2ccc([N+](=O)[O-])cc2)O1 | 3.79 | 4.16 |  | 4.22 |  |  | Toxic |  |
| CC(=O)c1ccc(/N=C2\C=CC(=O)O2)cc1 | 3.69 | 3.66 |  | 3.67 |  |  |  |  |
| COC(=O)/C=C\C(=O)Nc1ccc(Cl)cc1 | 4.02 | 4.11 |  | 4.39 | Non-toxic |  |  |  |
| Cc1ccc(NC(=O)/C=C/C(=O)O)cc1 | < 3.30 | < 3.30 |  | < 3.30 | Non-toxic |  |  |  |
| Cc1ccc(NC(=O)/C=C/C(=O)O)cc1C | < 3.30 | 3.33 |  | < 3.30 | Non-toxic |  |  |  |

| Structure (SMILES) | pIC50 (CCRF-CEM) | pIC50 (L1210) | pIC50 [1] | pIC50 [2] | Activity (Mus musculus [3]) | Activity (Mus musculus [4]) | Activity (Mus musculus [5]) | Activity (Mus musculus [6]) |
| --- | --- | --- | --- | --- | --- | --- | --- | --- |
| COc1ccc(NC(=O)/C=C/C(=O)O)cc1 | < 3.30 | < 3.30 |  | < 3.30 | Non-toxic |  |  |  |
| O=C(O)/C=C/C(=O)Nc1ccc([N+](=O)[O-])cc1 | < 3.30 | < 3.30 |  | 3.63 | Non-toxic |  |  |  |
| CC(=O)c1ccc(NC(=O)/C=C/C(=O)O)cc1 | < 3.30 | < 3.30 |  | < 3.30 | Non-toxic |  |  |  |
| Cc1cccc(C)c1NC(=O)/C=C/C(=O)O | < 3.30 | < 3.30 |  | < 3.30 | Non-toxic |  |  |  |
| COC(=O)/C=C/C(=O)Nc1ccccc1 | 4.40 | 4.40 |  | 4.38 | Non-toxic |  |  |  |
| COC(=O)/C=C/C(=O)Nc1c(C)cccc1C | 4.51 | 4.47 |  | 4.59 | Non-toxic |  |  |  |
| COC(=O)/C=C/C(=O)Nc1ccc(Cl)cc1 | 5.02 | 5.12 |  | 5.09 | Non-toxic |  |  |  |
| COC(=O)/C=C/C(=O)Nc1ccc(Cl)c(Cl)c1 | 5.32 | 6.43 |  | 5.62 | Non-toxic |  |  |  |
| COC(=O)/C=C/C(=O)Nc1ccc(C)cc1 | 4.82 | 5.03 |  | 4.68 |  | Toxic |  |  |
| COC(=O)/C=C/C(=O)Nc1ccc(C)c(C)c1 | 5.12 | 5.66 | 2.63 | 5.34 | Non-toxic |  |  |  |
| COC(=O)/C=C/C(=O)Nc1ccc(OC)cc1 | 4.43 | 4.74 |  | 5.00 | Non-toxic |  |  |  |
| COC(=O)/C=C/C(=O)Nc1ccc([N+](=O)[O-])cc1 | 4.96 | 5.21 |  | 5.14 | Non-toxic |  |  |  |
| COC(=O)/C=C/C(=O)Nc1ccc(C(C)=O)cc1 | 4.49 | 4.77 |  | 4.46 |  |  |  |  |
| O=C(O)/C=C/C(=O)Nc1ccc(Cl)cc1 | < 3.30 | < 3.30 |  | < 3.30 | Non-toxic |  |  |  |
| COC(=O)/C=C\C(=O)Nc1ccc([N+](=O)[O-])cc1 | 3.72 | 3.68 |  | 3.68 |  |  | Toxic |  |
| COC(=O)/C=C\C(=O)Nc1ccc(C(C)=O)cc1 | 4.36 | 3.74 |  | 4.30 |  |  | Toxic |  |
| COC(=O)/C=C\C(=O)Nc1c(C)cccc1C | 3.74 | 3.74 |  | 3.72 |  |  |  |  |
| O=C(O)CCC(=O)Nc1ccccc1 | < 3.30 | < 3.30 |  | < 3.30 |  |  |  |  |
| O=C(O)/C=C/C(=O)Nc1ccccc1 | < 3.30 | < 3.30 |  | < 3.30 | Non-toxic |  |  |  |
| O=C1CCC(=O)N1c1ccccc1 | < 3.30 | < 3.30 |  | < 3.30 | Non-toxic |  |  |  |
| O=C1C=CC(=O)N1c1ccccc1 | 3.66 | 3.79 |  | 3.68 |  | Toxic | Toxic | Toxic |
| N[C@@H](Cc1ccc(N(CCCl)CCCl)cc1)C(=O)O [MELPHALAN] | 5.60 | 5.68 |  | 5.49 |  |  |  |  |

— ChEMBL document CHEMBL1155368, “Derivatives of aryl amines containing the cytotoxic 1,4-dioxo-2-butenyl pharmacophore” (Bioorg Med Chem Lett, 2010)
